Laboratory results published in ChEMBL document CHEMBL1201862, “PubChem BioAssay data set” (2004).
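These data come from cells grown in 96-well plates and exposed to compound for 48 hours at five concentrations. At the GI50, growth is halved.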 Calls of active or inactive are those of the source. Cut-off read from the data, not from the text of the source: active = GI50 up to about 1.1 µM and inactive = higher.

How the values were obtained:
Assay in all cases: NCI anticancer screen, dose series, 48 h
A549 = system: A549
MCF7 = system: MCF7
TK-10 = system: TK-10
SK-MEL-5 = system: SK-MEL-5
M14 = system: M14
UACC-257 = system: UACC-257
SF-268 = system: SF-268
HCT-116 = system: HCT-116
RXF 393 = system: RXF 393
OVCAR-3 = system: OVCAR-3
HCT-15 = system: HCT-15
HL-60 = system: HL-60
MDA-N = system: MDA-N
KM12 = system: KM12
HT-29 = system: HT-29
SNB-75 = system: SNB-75
NCI-H226 = system: NCI-H226
OVCAR-4 = system: OVCAR-4
U-251 = system: U-251
SNB-78 = system: SNB-78

Measured: GI50

COc1ccc2c(c1)c1nn(CCN(C)C)c3ccc4c(=O)n(CCN(C)C)c(=O)n2c4c13
active: A549 < 0.01 µM | MCF7 < 0.0158 µM | TK-10 0.0649 µM | SK-MEL-5 0.198 µM | M14 0.105 µM | UACC-257 0.208 µM | SF-268 < 0.01 µM | HCT-116 < 0.01 µM | RXF 393 0.133 µM | OVCAR-3 0.018 µM | HL-60 0.042 µM | MDA-N < 0.0325 µM | KM12 < 0.0142 µM | HT-29 < 0.01 µM | SNB-75 < 0.01 µM | NCI-H226 0.125 µM | OVCAR-4 < 0.01 µM | U-251 < 0.01 µM
< 0.01 µM: HCT-15

CCOc1ccc(/N=C\c2cc(OC)c(OC)c(OC)c2)cc1
inactive: A549 > 100 µM | SNB-78 > 100 µM | TK-10 > 100 µM | SK-MEL-5 > 100 µM | M14 > 100 µM | UACC-257 > 100 µM | SF-268 > 100 µM | HCT-116 > 100 µM | RXF 393 2.08 µM | OVCAR-3 > 100 µM | HL-60 > 100 µM | KM12 > 100 µM | HT-29 > 100 µM | SNB-75 32.4 µM | OVCAR-4 > 100 µM | U-251 > 100 µM
32.4 µM: HCT-15

CC1=C(/C(C)=N/NC(=O)C(N)=O)Sc2ccccc2N1
inactive: A549 > 100 µM | SNB-78 > 100 µM | TK-10 > 100 µM | SK-MEL-5 > 100 µM | M14 > 100 µM | UACC-257 > 100 µM | SF-268 > 100 µM | HCT-116 10 µM | RXF 393 > 100 µM | OVCAR-3 > 100 µM | HL-60 > 100 µM | KM12 > 100 µM | HT-29 > 100 µM | SNB-75 65.8 µM | OVCAR-4 > 100 µM | U-251 > 100 µM
> 100 µM: HCT-15

COc1cc(/C=C/C(=O)c2sc(Nc3ccccc3)nc2C)ccc1O
84.1 µM: HCT-15
inactive: A549 71.8 µM | SNB-78 > 100 µM | TK-10 > 100 µM | SK-MEL-5 38.4 µM | UACC-257 > 100 µM | SF-268 49.2 µM | RXF 393 51.9 µM | OVCAR-3 33.5 µM | HL-60 44.2 µM | KM12 > 100 µM | HT-29 97.9 µM | SNB-75 23.5 µM | U-251 > 100 µM

O=C(NO)c1ccc(C(=O)NO)cc1
> 100 µM: HCT-15
inactive: A549 > 100 µM | MCF7 > 100 µM | TK-10 76 µM | SK-MEL-5 81.7 µM | M14 97.9 µM | UACC-257 56.9 µM | SF-268 58.3 µM | HCT-116 56.1 µM | RXF 393 50.4 µM | OVCAR-3 32.4 µM | HL-60 42.7 µM | MDA-N > 100 µM | KM12 79.8 µM | HT-29 87.9 µM | SNB-75 8.2 µM | NCI-H226 > 100 µM | OVCAR-4 > 100 µM | U-251 1.25 µM

O=C(N/C(=C\c1ccc(F)cc1)c1nc2ccccc2[nH]1)c1ccccc1
inactive: A549 > 100 µM | SNB-78 > 100 µM | TK-10 > 100 µM | SK-MEL-5 > 100 µM | M14 > 100 µM | UACC-257 > 100 µM | SF-268 > 100 µM | HCT-116 > 100 µM | RXF 393 > 100 µM | OVCAR-3 > 100 µM | KM12 > 100 µM | HT-29 > 100 µM | SNB-75 56 µM | NCI-H226 > 100 µM | OVCAR-4 > 100 µM | U-251 > 100 µM
> 100 µM: HCT-15

COc1ccc(C(=O)C(C(=O)C(=O)Nc2nccs2)c2ccc(OC)cc2)cc1 (centres undefined)
> 100 µM: HCT-15
inactive: A549 > 100 µM | SNB-78 > 100 µM | TK-10 > 100 µM | SK-MEL-5 > 100 µM | M14 > 100 µM | UACC-257 > 100 µM | SF-268 > 100 µM | HCT-116 > 100 µM | RXF 393 80.9 µM | OVCAR-3 > 100 µM | KM12 > 100 µM | HT-29 > 100 µM | SNB-75 73.6 µM | OVCAR-4 > 10 µM | U-251 > 100 µM

CCOC(=O)c1cc2nc3ccccc3c(=O)n2c2ccccc12
inactive: A549 > 10 µM | MCF7 > 10 µM | TK-10 > 10 µM | SK-MEL-5 > 10 µM | M14 > 10 µM | UACC-257 > 10 µM | SF-268 > 10 µM | HCT-116 > 10 µM | RXF 393 > 10 µM | OVCAR-3 > 10 µM | HL-60 > 10 µM | MDA-N > 10 µM | KM12 > 10 µM | HT-29 > 10 µM | SNB-75 6.32 µM | NCI-H226 > 10 µM | OVCAR-4 > 10 µM | U-251 > 10 µM
> 10 µM: HCT-15

O=C(c1ccc(Cl)cc1)c1ccc(OCCCCCCCCCCOc2ccc(C(=O)c3ccc(Cl)cc3)cc2)cc1
inactive: A549 > 100 µM | SNB-78 > 100 µM | TK-10 > 100 µM | SK-MEL-5 > 100 µM | UACC-257 > 100 µM | SF-268 > 100 µM | RXF 393 > 100 µM | OVCAR-3 > 100 µM | HL-60 > 100 µM | KM12 > 100 µM | HT-29 > 100 µM | SNB-75 > 100 µM | NCI-H226 > 100 µM | U-251 > 100 µM
> 100 µM: HCT-15

COc1c(C(=O)O)oc2c(OC)cccc12
> 100 µM: HCT-15
inactive: A549 > 100 µM | SNB-78 > 100 µM | TK-10 > 100 µM | SK-MEL-5 > 100 µM | M14 > 100 µM | UACC-257 > 100 µM | SF-268 > 100 µM | HCT-116 > 100 µM | OVCAR-3 > 100 µM | HL-60 > 100 µM | KM12 > 100 µM | HT-29 > 100 µM | SNB-75 29.9 µM | NCI-H226 > 100 µM | OVCAR-4 > 100 µM | U-251 > 100 µM

C#CCCCC(=O)N(C(=O)C[S+]([O-])CC)c1ccccc1 (centres undefined)
inactive: A549 > 100 µM | MCF7 > 100 µM | TK-10 > 100 µM | SK-MEL-5 > 100 µM | M14 > 100 µM | UACC-257 > 100 µM | SF-268 > 100 µM | HCT-116 > 100 µM | RXF 393 > 100 µM | OVCAR-3 > 100 µM | HL-60 > 100 µM | MDA-N > 100 µM | KM12 > 100 µM | HT-29 > 100 µM | SNB-75 > 100 µM | NCI-H226 > 100 µM | OVCAR-4 > 100 µM | U-251 > 100 µM
> 100 µM: HCT-15

O=[N+]([O-])c1cc2c(c3nonc13)OCCCCO2
2.94 µM: HCT-15
inactive: A549 10.3 µM | MCF7 7.76 µM | TK-10 21.8 µM | SK-MEL-5 8.61 µM | M14 5 µM | UACC-257 15.5 µM | SF-268 3.37 µM | HCT-116 1.75 µM | RXF 393 7.74 µM | OVCAR-3 2.19 µM | HL-60 2.55 µM | MDA-N 4.13 µM | KM12 4.37 µM | HT-29 3.88 µM | SNB-75 10.6 µM | NCI-H226 14.4 µM | OVCAR-4 14.2 µM | U-251 7.1 µM

COC(=O)C1CC23CCCN4CCC5(c6ccccc6N(C=O)C15CC2)C43 (centres undefined)
> 100 µM: HCT-15
inactive: A549 > 100 µM | MCF7 > 100 µM | TK-10 > 100 µM | SK-MEL-5 > 100 µM | M14 > 100 µM | UACC-257 > 100 µM | SF-268 > 100 µM | HCT-116 > 100 µM | RXF 393 > 100 µM | OVCAR-3 > 100 µM | HL-60 > 100 µM | MDA-N > 100 µM | KM12 > 100 µM | HT-29 > 100 µM | SNB-75 > 100 µM | NCI-H226 > 100 µM | OVCAR-4 > 100 µM | U-251 > 100 µM

CCOC(=O)CN1C(=O)c2c(c(C)n(-c3ccccc3)c2C)C1=O
inactive: A549 > 100 µM | MCF7 > 100 µM | TK-10 > 100 µM | SK-MEL-5 > 100 µM | M14 > 100 µM | UACC-257 > 100 µM | SF-268 > 100 µM | HCT-116 > 100 µM | RXF 393 26 µM | OVCAR-3 > 100 µM | HL-60 > 100 µM | MDA-N > 100 µM | KM12 > 100 µM | HT-29 > 100 µM | SNB-75 82.8 µM | NCI-H226 > 100 µM | OVCAR-4 > 100 µM | U-251 73.5 µM
> 100 µM: HCT-15

CCCC(O)[C@@H](O)c1ccc2c(c1O)C(=O)c1c(OC)cccc1C2=O (some centres undefined)
26.2 µM: HCT-15
inactive: A549 44 µM | SNB-78 36.6 µM | TK-10 51.4 µM | SK-MEL-5 16.8 µM | M14 31.6 µM | UACC-257 29.9 µM | SF-268 57.7 µM | HCT-116 38.5 µM | OVCAR-3 34.8 µM | HL-60 18.4 µM | KM12 35.6 µM | HT-29 38.9 µM | SNB-75 47 µM | NCI-H226 27.3 µM | OVCAR-4 25 µM | U-251 27.2 µM

COc1ccc(C2Cc3cc(OC)c(OC)c(OC)c3C2)cc1 (centres undefined)
inactive: A549 22 µM | SNB-78 72.6 µM | TK-10 30.3 µM | SK-MEL-5 16.3 µM | M14 35.6 µM | UACC-257 23.2 µM | SF-268 47.1 µM | HCT-116 41 µM | OVCAR-3 38.8 µM | KM12 23 µM | HT-29 28.1 µM | SNB-75 24.2 µM | NCI-H226 34.9 µM | OVCAR-4 59.6 µM | U-251 73.5 µM
38.6 µM: HCT-15
